Measurements as given in patent US11505539B2, “Deuterated compounds as inhibitors of the BCL6 BTB domain protein-protein interaction and/or as BCL6 degraders” (Ontario Institute for Cancer Research (OICR), priority 2017, dated 2022).
pEC50, pIC50, pKd: −log10 of the molar value.

Assays:
[1] = Liver microsomal metabolic stability, mouse; format: in vitro ADME; conditions: % remaining after 60 min, 1 μM compound, 0.5 mg/mL protein
Protocol: (§1) (f) Microsomal Stability Assays
(§2) Liver Microsomal Metabolic Stability
(§3) Working stocks were initially diluted to a concentration of 40.0 μM in 0.1 M potassium phosphate buffer (pH 7.4) before addition to the reaction vials. CD-1 mouse (male) or pooled human liver microsomes (Corning Gentest) were utilized at a final concentration of 0.5 mg/mL (protein). Duplicate wells were used for each time point (0 and 60 minutes). Reactions were carried out at 37° C. in an orbital shaker at 175 rpm, and the final DMSO concentration was kept constant at 0.1%. The final volume for each reaction was 100 μL, which includes the addition of an NADPH-Regeneration Solution (NRS) mix. This NRS mix is comprised of glucose 6-phosphate dehydrogenase, NADP+, MgCl2, and glucose 6-phosphate. Upon completion of the 60 minute time point, reactions were terminated by the addition of 2-volumes (200 μL) of ice-cold, acetonitrile containing 0.5% formic acid and internal standard. Samples were then centrifuged at 4,000 rpm for 10 minutes to remove debris and precipitated protein. Approximately 150 μL of supernatant was subsequently transferred to a new 96 well microplate for LC/MS analysis:
(§4) Narrow-window mass extraction LC-MS analysis was performed for all samples in this study using a Waters Xevo quadrupole time-of-flight (QTof) mass spectrometer to determine relative peak areas of test compounds. The percent remaining values are calculated using the following equations: % remaining=(A)/A0×100
(§5) A is area response after incubation
(§6) A0 is area response at initial time point

[2] = Microsomal intrinsic clearance assay; format: in vitro ADME; conditions: pH 7.4, liver microsomes 0.5 mg/mL, species (mouse or human) not given; for microsomal CLint at 1 μM: read-out: Clint (μL/min/mg protein)
Protocol: CD-1 mouse (male) or pooled human liver microsomes (Corning Gentest) were utilized at a final concentration of 0.5 mg/mL (protein). 12.5 μL of each drug solution were placed into a well of 96 well plate. Reactions were initiated by the addition of activated microsome solutions (500 μL) to drug solutions. Reactions were carried out at 37° C. in an orbital shaker at 175 rpm, and the final DMSO concentration was kept constant at 0.1%. Test compounds were incubated at a final concentration of 1 μM. 50 μL of aliquots of reaction mixtures were quenched by mixing with two parts of stop solution (internal standard containing 0.5% formic acid in acetonitrile) at appropriate time-points and mixed well. Then, solutions were centrifuged at 4000 rpm for 10 min. Supernatants were transferred to a new 96-well plate and analyzed by a Waters Q-TOF mass spectrometer coupled with an UPLC System. Recovery analysis was performed using relative peak areas and narrow window mass extraction.
The ln(% remaining) is plotted against time and the gradient of the line determined. Elimination Constant (k)=−slope Half-life (t½)(min)=ln 2/k=0.693/k V (μL/mg)=volume of incubation (μL)/protein in the incubation (mg) Intrinsic Clearance (CLint)(μL/min/mg protein)=V·0.693/t½=V·k

[3] = as reported; limits use in animal studies; cited from earlier work
[4] = Liver microsomal metabolic stability, human; format: in vitro ADME; conditions: % remaining after 60 min, 1 μM compound, 0.5 mg/mL protein
Protocol: as §1, §2, §3, §4, §5, §6

Karpas422 cells = assay: Tumor cell growth inhibition assay; format: cell-based; conditions: Homo sapiens, KARPAS-422, 144 h; Karpas422, six days, ATPlite; read-out: GI Karpas EC50
Protocol: (d) Tumor Cell Growth inhibition Assay:
Karpas422 cells were seeded into a 96-well plate at 2,000 cells/well in 150 ul medium (Alpha-MEM containing 10% FBS, […] Normocin, and […] Gentamycin, Invitrogen). A HP D300 digital dispenser was used to dose cells with DMSO or test compounds across a 10-point range of concentrations (high dose of 5 uM), and cultures were grown in a humidified 5% CO2 incubator at 37° C. After six days, plates were removed from incubator and equilibrated to room temperature. An equal volume of ATPlite assay reagent was added to each well, and samples were processed according to manufacturer's instructions (Perkin Elmer). Luminescent signal was measured using an Envision plate reader equipped with a US-Luminescence detector.

[5] = tested on: SuDHL4-3xBCL6-TK-Luc cells; assay: Cell-based BCL6 reporter luciferase assay; conditions: Homo sapiens, SU-DHL-4, 48 h, two days
Protocol: (c) Cell-Based Luciferase Assay:
A BCL6 reporter construct containing three copies of the consensus BCL6 binding site, the TK promoter, and the firefly luciferase gene was stably expressed in SuDHL4 cells after lentivirus infection and selection with Blasticidin. SuDHL4-3×BCL6-TK-Luc cells were seeded into a Viewplate 384-well assay dish at 15,000 cells/well in 25 ul medium (Alpha-MEM high glucose containing 10% FBS, 25 mM HEPES, […] GlutaMAX, 100 ug/ml Normocin, and […] Gentamycin, Invitrogen). A HP D300 digital dispenser was used to dose cells with DMSO or test compounds across a 10-point range of concentrations (high dose of 10 uM), and cultures were grown in a humidified 5% CO2 incubator at 37° C. After two days, plates were removed from incubator and equilibrated to room temperature. An equal volume of neolite reporter gene assay reagent was added to each well, and samples were processed according to manufacturer's instructions (Perkin Elmer). Luminescent signal was measured using an Envision plate reader equipped with a US-Luminescence detector.

[6] = biological target: T1, BTB domain of BCL6 / SMRT BBD peptide (Homo sapiens, UniProt P41182); assay: BCL6-BTB - SMRT peptide inhibition fluorescence polarization (FP) screen; format: binding; conditions: 1.25 uM BCL6-BTB, 20 nM Bodipy-TMR SMRT peptide probe; lower limit of assay 1 uM
T1 construct: Thioredoxin-His6-STag-TEV-biotinylation-thrombin-BCL6 amino acids 1-129
Protocol: (a) BCL6-BTB—SMRT Peptide Inhibition Fluorescence Polarization (FP) Screen
Compounds were dissolved in 100% DMSO at 10 mM, assayed fresh, and then stored at −20° C. for repeat studies and future work. The reaction mixture consists of 1.25 uM of the 25 kd BCL6-BTB domain (Thioredoxin-His6-STag-TEV-biotinylation-thrombin-BCL6 amino acids 1-129) plus 20 nM of the peptide probe Ac-GSLVATVKEAGRSIHEIPA (SEQ ID NO: 1) with 16 amino acid peptide from the SMRT BBD (1414-1429) with a Bodipy-TMR fluorescent label on the lysine. […] 20 ul of this assay mixture was added to each well of the 384 well plates with the exception of the control wells that contained no protein (for setting the minimum FP value). Compounds were directly sprayed using an HP D300 Digital Dispenser from 10 mM DMSO stocks onto black 384 well plates (greiner bio-one #781900) in a concentration range from 1 uM to 500 uM (10 points in duplicate). The assay was equilibrated for 1 hour prior to reading the FP values (Ex 540 nm/Em 580 nm) with a Perkin Elmer Envision plate reader. The results were curve fitted and IC50 values were calculated using the BioAssay software from CambridgeSoft.

BCL6 BTB domain = biological target: T2, BCL6 BTB domain (Homo sapiens, UniProt P41182); assay: Surface plasmon resonance (SPR) assay; format: binding; conditions: Biacore T200, single cycle kinetics
T2 construct: BCL6 BTB domain (biotin-thrombin-BCL6 amino acids 1-129; 17 kd); Thioredoxin-His6-STag (N, cleaved yes); made in house
Protocol: (b) Surface Plasmon Resonance (SPR) Assay
SPR studies were performed using a Biacore™ T200 instrument (GE Health Sciences Inc.). The BCL6 BTB protein used in the FP assay was biotinylated using the site specific biotinylating enzyme BirA, and then cleaved with TEV protease to produce the BCL6 BTB domain (biotin-thrombin-BCL6 amino acids 1-129; 17 kd) that was use in SPR. This protein was stably captured (1000RU) to streptavidin coupled SA chips (BR-1005-31, GE Health Sciences Inc.) according to the manufacture's protocol. Compounds were dissolved in 100% DMSO at 10 mM and 2-fold serial dilutions were done in 100% DMSO. For SPR analysis the serially titrated compounds were diluted 1/20 into buffer (10 mM HEPES pH7.4, 150 mM NaCl, 0.05% Tween-20, 3 mM EDTA) giving a final concentration of 5% DMSO. The Biacore flow rate was set at 100 ul/min. For KD determinations, single cycle kinetic analysis was performed with an on time of 60 seconds, and an off time of 300 seconds. Curve fitting and KD calculations were done with the Biacore T200 Evaluation software (GE Health Sciences Inc).

SMILES	Mouse Liver Microsomes (MLM, % @ 1 h) [1]	half-life at 1 μM [2]	microsomal CLint at 1 μM [2]	bioavailability [3]	Human Liver Microsomes (HLM, % @ 1 h) [4]	pEC50 (Karpas422 cells)	pIC50 [5]	pIC50 [6]	pKd (BCL6 BTB domain)
CNC(=O)COc1cc2cc(Nc3nc(N4C[C@H](C)C[C@H](C)C4)ncc3Cl)ccc2n(C)c1=O [BI-3802, reference compound]	13%	12 min	112 µL/min/mg	poor bioavailability	25%				
[2H]C([2H])([2H])NC(=O)C([2H])([2H])Oc1cc2cc(Nc3nc(N4C[C@H](C)C[C@H](C)C4)ncc3Cl)ccc2n(C)c1=O [Example Ia, 2-((6-((5-chloro-2-((3R,5S)-3,5-dimethylpiperidin-1-yl)pyrimidin-4-yl)amino)-1-methyl-2-oxo-1,2-dihydroquinolin-3-yl)oxy)-N-(methyl-d3)acetamide-2,2-d2]	8%	29 min	48 µL/min/mg		26%	7.85	7.33	≥ 6.00	8.34
[2H]C([2H])([2H])NC(=O)C([2H])([2H])Oc1cc2cc(Nc3nc(N4C[C@@H](C)C(F)(F)[C@@H](C)C4)ncc3Cl)ccc2n(C)c1=O [Ib]	91%	82 min	17 µL/min/mg		100%	8.30	8.12	≥ 6.05	8.34
